Measured values taken from US8298766B2, “Fluorescent dyes, methods of synthesis and applications thereof” (priority 2010, dated 2012).

Columns and labels:
[1] = system: live MCF-7 cells (human breast cancer cells); experiment: Imaging of live MCF-7 cells stained with compound by confocal laser scanning microscopy; format: cell-based; settings: 30 min at 37° C., excitation Cy5 channel (633 nm)
Protocol: (§1) FIG. 6A is the white light image of live MCF-7 cells (human breast cancer cells) stained with compound A, 6B is the fluorescence image of live MCF-7 cells stained with compound A. The concentration of compound A is 2 μM. The equipment used is a confocal laser scanning microscope (TCS-SP2). Excitation channel: Cy5 (633 nm).
as §1, with “FIG. 7A” for “FIG. 6A”, “compound D, 7B” for “compound A, 6B”, “compound D.” for “compound A.”, “compound D” for “compound A”, “is 1.5” for “is 2”
as §1, with “FIG. 8A” for “FIG. 6A”, “compound E, and 8B” for “compound A, 6B”, “compound E.” for “compound A.”, “compound E” for “compound A”, “is 3” for “is 2”
The equipment used is a confocal laser scanning microscope (TCS-SP2). Excitation channel: Cy5 (633 nm).
(§2) MCF-7 cells are cultured in DEME (Invitrogen) supplemented with 10% FBS (Invitrogen). One day before imaging, cells are seeded in 24-well flat-bottomed plates. The next day, the live cells were incubated with 2 μM of compound A for 30 min at 37° C. under 5% CO2 and then washed with phosphate-buffered saline (PBS) three times, and then the fluorescence imaging was observed under confocal laser scanning microscopy with a 100× objective lens (excited with Cy5 channel). 1000× magnification was utilized in the imaging. The scale bar represents 20 μm. […] The equipment used is a confocal laser scanning microscope (TCS-SP2). Excitation channel: Cy5 (633 nm). The concentration of compound A is 2 μM.
as §2, with “with 1.5” for “with 2”, “compound D” for “compound A”, “(TCS-SP2). […]” for “(TCS-SP2). Excitation channel: Cy5 (633 nm). The concentration of compound A is 2 μM.”
MCF-7 cells are cultured in DEME (Invitrogen) supplemented with 10% FBS (Invitrogen). […] The next day, the live cells were incubated with 3 μM of compound E for 30 min at 37° C. under 5% CO2 and then washed with phosphate-buffered saline (PBS) three times, and then the fluorescence imaging was observed under confocal laser scanning microscopy with a 100× objective lens (excited with Cy5 channel). […]

[2] = system: calf thymus DNA; experiment: Fluorescence intensity before and after addition of calf thymus DNA; format: binding; settings: pH 7.0, 10 mM Tris-HCl buffer; dye 1 μM; calf thymus DNA 40 μg/mL
Protocol: (§3) The ordinate is the fluorescence increasing fold. The equipment used is a spectrofluorophotometer (FP-6500). […] The concentrations of calf thymus DNA and bovine serum albumin are both 40 μg/mL.
(§4) Finally each mixture of dye and BSA solution is diluted with pH 7.0, 10 mM Tris-HCl buffer solution to 3 mL and the fluorescence emission spectra are determined respectively after stabilization. […] Finally each mixture of dye and calf thymus DNA solution is diluted with pH 7.0, 10 mM Tris-HCl buffer solution to 3 mL and the fluorescence emission spectra are determined respectively after stabilization. […] The equipment used is a spectrofluorophotometer (FP-6500).

[3] = molecular target: bovine serum albumin (Bos taurus, UniProt P02769); experiment: Fluorescence intensity before and after addition of bovine serum albumin; format: binding; settings: pH 7.0, 10 mM Tris-HCl buffer; dye 1 μM; bovine serum albumin 40 μg/mL
bovine serum albumin, sequence (P02769 25-607): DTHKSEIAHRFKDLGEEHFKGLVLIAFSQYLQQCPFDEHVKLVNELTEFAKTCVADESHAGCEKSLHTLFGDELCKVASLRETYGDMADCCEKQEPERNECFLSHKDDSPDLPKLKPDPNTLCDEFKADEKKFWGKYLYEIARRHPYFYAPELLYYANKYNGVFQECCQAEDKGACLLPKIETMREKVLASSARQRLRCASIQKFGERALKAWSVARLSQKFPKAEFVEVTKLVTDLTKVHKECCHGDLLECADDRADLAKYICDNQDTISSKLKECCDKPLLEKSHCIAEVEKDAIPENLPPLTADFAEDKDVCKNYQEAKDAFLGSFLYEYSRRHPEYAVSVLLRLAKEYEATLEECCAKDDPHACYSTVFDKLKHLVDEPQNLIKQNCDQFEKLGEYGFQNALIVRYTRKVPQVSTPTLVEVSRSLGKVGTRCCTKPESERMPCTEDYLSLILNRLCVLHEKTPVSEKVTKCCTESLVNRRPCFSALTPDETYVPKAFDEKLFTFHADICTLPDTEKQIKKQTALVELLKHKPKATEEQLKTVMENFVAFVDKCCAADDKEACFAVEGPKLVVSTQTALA
Protocol: as §3, §4

[4] = system: calf thymus DNA; experiment: Fluorescence emission spectra in the absence and presence of calf thymus DNA in buffer solution; format: binding; settings: dye 1 μM, calf thymus DNA 100 μM
Protocol: (§5) FIG. 1 is the comparison of fluorescence emission spectra of compound A with commercially available dye EB in the absence and presence of calf thymus DNA respectively in pH 7.36, 10 mM Tris-HCl buffer. The abscissa is wavelength (nm) and the ordinate is the relative fluorescence intensity. The equipments used are a UV-Vis spectrophotometer (Hp8453) and a spectrofluorophotometer (FP-6500). The concentrations of compound A, EB and calf thymus DNA are 1 μM, 1 μM and 100 μM respectively.
as §5, with “FIG. 2” for “FIG. 1”, “compound B” for “compound A”, “pH 7.4,” for “pH 7.36,”, “compound B,” for “compound A,”, “100 μM,” for “100 μM”
FIG. 3 is the comparison of fluorescence emission spectra of compound C with commercially available dye EB in the absence and presence of calf thymus DNA respectively in pH 7.24, 10 mM Tris-HCl buffer. The abscissa is wavelength (nm) and the ordinate is the relative fluorescence intensity. […]
Determinations of the fluorescence emission spectra of compound A and commercially available dye EB in the absence and presence of calf thymus DNA respectively in buffer solution
Solutions of compound A in DMSO and EB in water are separately prepared with the concentrations of 1 mM. 3 μL of each solution is diluted with 10 mM Tris-HCl buffer solution (pH 7.36) to 3 mL in a cuvette to determine its fluorescence intensity. Solution of calf thymus DNA in water is prepared, whose concentration is determined as 1.5 mM by the adsorption at 260 nm in spectrophotometry (using the molar absorption coefficients of ε260 nm=6600 M^−1 cm^−1). […]
Determinations of the fluorescence emission spectra of compound B and commercially available dye EB in the absence and presence of calf thymus DNA respectively in buffer solution […]

In the case of `CCN1C=C/C(=C\C=C\c2sc3ccccc3[n+]2CC)c2ccccc21` [M1, reference compound], the “staining pattern of live MCF-7 cells (fluorescence image)” value (“staining pattern of live MCF-7 cells” below) ([1]; 2 μM) is reported as “simultaneously nucleus and cytoplasm staining” and the “fluorescence intensity increase upon binding to calf thymus DNA” value [2] is reported as 40 fold.
For `CCN(CC)CCCC[n+]1c(/C=C/C=C2\C=CN(CC)c3ccccc32)sc2ccccc21.[I-]` [compound A], the “staining pattern of live MCF-7 cells” value ([1]; 2 μM) was “nucleus selective staining”, the “fluorescence intensity increase with BSA solution” value [3] was 1.4 fold and the “fluorescence intensity increase upon binding to calf thymus DNA” value [2] was 45.5 fold. For the same compound, the “fluorescence increase upon binding to calf thymus DNA (I/I0)” value (“fluorescence increase upon binding” below) ([4]; pH 7.36, 10 mM Tris-HCl buffer) was 55 fold.
`COc1ccc2c(c1)oc(/C=C/C=C1\C=CN(CCCN3CCCCC3)c3ccccc31)[n+]2CCCN1CCCCC1.[Br-]` [compound B] was tested, and the “fluorescence increase upon binding” value ([4]; pH 7.4, 10 mM Tris-HCl buffer) was 89 fold.
With `NCCNCCC[n+]1c(/C=C/C=C2\C=CN(CCO)c3ccccc32)sc2ccccc21` [compound C] the “fluorescence increase upon binding” value ([4]; pH 7.24, 10 mM Tris-HCl buffer) was 75 fold.
`CC1(C)C(/C=C/C=C2\C=CN(Cc3ccccc3)c3ccccc32)=[N+](CCCNc2ccccc2)c2ccc(Cl)cc21.[Br-]` [compound D] was tested, and the “staining pattern of live MCF-7 cells” value ([1]; 1.5 μM) was “nucleus selective staining”.
With `CCCNCC[n+]1c(/C=C/C=C2\C=CN(CCCl)c3cc(C)ccc32)[se]c2ccccc21.[Br-]` [compound E] the “staining pattern of live MCF-7 cells” value ([1]; 3 μM) was “nucleus selective staining”.
